In article PMC7566295, “Discovery of a Novel Natural Allosteric Inhibitor That Targets NDM-1 Against Escherichia coli” (Frontiers in Pharmacology, 2020):
Where two headings read alike, the source gives them in different places. Blank lines part the entries; values can stand above or below the molecule they belong to.

How the values were obtained:
NDM-1 [1] = molecular target: T1, NDM-1 (Klebsiella pneumoniae, UniProt C7C422); experiment: Enzyme inhibition assay (nitrocefin hydrolysis); format: biochemical
T1 construct: made in house; host or cells: E. coli BL21
T1 sequence (C7C422 29-270, looked up): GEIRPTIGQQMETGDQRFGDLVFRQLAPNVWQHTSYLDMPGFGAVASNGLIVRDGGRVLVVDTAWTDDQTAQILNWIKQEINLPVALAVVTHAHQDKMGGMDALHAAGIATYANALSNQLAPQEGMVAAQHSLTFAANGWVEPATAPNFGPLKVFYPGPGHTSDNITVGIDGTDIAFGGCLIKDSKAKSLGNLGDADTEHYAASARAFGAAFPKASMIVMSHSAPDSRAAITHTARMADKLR
Procedure: (§1) According to the methodology of Liu et al. the enzyme and nitrocefin were mixed and incubated at 37°C for 10 min. Consequently, absorbance was measured at 492 nm in a microplate reader. The specific calculation method was obtained from the literature ([Liu et al., 2018b]).

NDM-1 [2] = conditions: ref Chiou et al., 2015; read-out: IC50 for inhibiting NDM-1 in the hydrolysis of imipenem; cited from earlier work
[3] = tested on: bacteria carrying carbapenemases; parameters: method as in Chiou et al., 2015; conditions: ref Chiou et al., 2015; cited from earlier work
E. coli ZC-YN3 [4] = experiment: Time-killing assay; format: cell-based, Escherichia coli; conditions: after 4 hours
[5] = tested on: E. coli ZC-YN3 (producing NDM-1); experiment: MIC by broth microdilution / checkerboard; format: cell-based; conditions: Escherichia coli
[6] = parameters: method as in Hecker et al., 2020; conditions: rats; ref Hecker et al., 2020; cited from earlier work
E. coli ZC-YN3 [7] = experiment: Growth curves; format: cell-based, Escherichia coli; conditions: carnosic acid alone, Figure 2A
L65A-NDM-1 [8] = molecular target: T2, L65A-NDM-1 (Klebsiella pneumoniae, UniProt C7C422, L65A); experiment: Enzyme reaction rate (steady-state kinetics, nitrocefin); format: biochemical, E. coli; conditions: L65A treated with carnosic acid
T2 sequence (C7C422 29-270 L65A): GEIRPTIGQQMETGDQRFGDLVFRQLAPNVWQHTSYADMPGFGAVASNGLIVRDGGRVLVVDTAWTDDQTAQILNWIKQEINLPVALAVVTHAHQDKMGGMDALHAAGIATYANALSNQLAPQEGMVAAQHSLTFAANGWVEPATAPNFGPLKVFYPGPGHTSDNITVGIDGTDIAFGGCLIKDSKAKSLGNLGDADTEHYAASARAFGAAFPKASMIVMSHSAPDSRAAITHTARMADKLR
Procedure: (§2) The principle of the measurement is mainly by using nitrocefin as an indicator, and its color changes from yellow to red with the increase of hydrolysis. NDM-1 (250 ng/ml) was incubated with various concentrations of carnosic acid in phosphate buffered saline, and then 50 μg/m L of nitrocefin was added to the mixture ([Teng et al., 2019]). The reaction rate was determined by continuously measuring the absorbance at OD492 nm at different times ([Krupyanko, 2009]).

WT-NDM-1 [9] = molecular target: T3, WT-NDM-1 (Klebsiella pneumoniae, UniProt C7C422); experiment: as above; format: biochemical, E. coli; conditions: WT-NDM-1 treated with carnosic acid
T3 construct: made in house; host or cells: E. coli BL21
T3 sequence (C7C422 29-270 limits assumed): as the sequence (C7C422 29-270, looked up) above
Procedure: as §2

T94A-NDM-1 [10] = molecular target: T4, T94A-NDM-1 (Klebsiella pneumoniae, UniProt C7C422, T94A); experiment: as above; format: biochemical, E. coli; conditions: T94A treated with carnosic acid
T4 sequence (C7C422 29-270 T94A): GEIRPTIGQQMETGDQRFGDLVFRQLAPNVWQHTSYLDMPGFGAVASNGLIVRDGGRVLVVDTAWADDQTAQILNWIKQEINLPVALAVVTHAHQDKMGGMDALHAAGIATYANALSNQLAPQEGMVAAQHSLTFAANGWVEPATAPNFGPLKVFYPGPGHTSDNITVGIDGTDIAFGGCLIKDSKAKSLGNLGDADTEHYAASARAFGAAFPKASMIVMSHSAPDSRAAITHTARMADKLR
Procedure: as §2

F46A-NDM-1 [11] = molecular target: T5, F46A-NDM-1 (Klebsiella pneumoniae, UniProt C7C422, F46A); experiment: as above; format: biochemical, E. coli; conditions: F46A treated with carnosic acid
T5 sequence (C7C422 29-270 F46A): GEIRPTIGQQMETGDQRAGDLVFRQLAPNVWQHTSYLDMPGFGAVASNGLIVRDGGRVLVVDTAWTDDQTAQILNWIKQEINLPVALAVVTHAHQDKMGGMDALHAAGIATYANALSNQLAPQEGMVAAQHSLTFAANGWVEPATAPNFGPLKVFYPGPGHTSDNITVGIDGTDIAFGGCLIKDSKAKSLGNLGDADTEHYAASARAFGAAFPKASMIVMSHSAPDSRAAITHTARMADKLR
Procedure: as §2

[12] = tested on: F46A-NDM-1, L65A-NDM-1, T94A-NDM-1 mutants; experiment: Enzyme inhibition assay with NDM-1 mutants; format: biochemical, E. coli; conditions: Figure 5E
Source text: The coding sequence of the NDM-1 gene were amplified from genomic DNA of E. coli and digested with BamHI and XhoI. Subsequently, it was cloned into pET28a to generate plasmid pET28a-NDM-1. Plasmids encoding F46A-NDM-1, L65A-NDM-1, and T94A-NDM-1 were constructed using a QuikChange site-directed mutagenesis kit. The ligation product was transformed into competent E. coli DH5α cells. All constructed strains were verified by PCR and DNA sequencing ([Ali et al., 2018]). The NDM-1 primer came from the literature ([Teng et al., 2019]), and the other primers were designed in this experiment.
as §1

L65A-NDM-1 [13] = molecular target: T2, L65A-NDM-1; experiment: Fluorescence-quenching assay; format: binding, E. coli; conditions: L65A-NDM-1, 300 K
Procedure: (§3) The binding constant (KA) of the binding site of carnosic acid to wild type NDM-1 (WT-NDM-1), F46A-NDM-1, L65A-NDM-1, and T94A-NDM-1 was measured using a fluorescence quenching method. The binding energy was calculated according to the equation: r/Df = nK − rK. This method referred to the previous literature ([Wang J. F. et al., 2015]), using an excitation wavelength of 280 nm and an emission wavelength of 345 nm.

WT-NDM-1 [14] = molecular target: T3, WT-NDM-1; experiment: Fluorescence-quenching assay; format: binding, E. coli; conditions: WT-NDM-1, 300 K
Procedure: as §3

T94A-NDM-1 [15] = molecular target: T4, T94A-NDM-1; experiment: Fluorescence-quenching assay; format: binding, E. coli; conditions: T94A-NDM-1, 300 K
Procedure: as §3

F46A-NDM-1 [16] = molecular target: T5, F46A-NDM-1; experiment: Fluorescence-quenching assay; format: binding, E. coli; conditions: F46A-NDM-1, 300 K
Procedure: as §3

mice = conditions: acute toxicity study, ref Wang et al., 2012; cited from earlier work
[17] = screening hits, Figure 1A, read-out: IC50 (converted)

Structure (SMILES): O=C(/C=C/c1ccc(O)cc1)c1ccc(O)cc1O [6'-Deoxychalcone]
- IC50 (NDM-1 [1]): 163 µM

Structure (SMILES): COc1cc(O)cc2c1C(=O)C[C@@H](c1ccccc1)O2 [Alpinetin]
- IC50 (NDM-1 [1]): 122 µM

- IC50 (NDM-1 [1]; [17]): 355 µM
Structure (SMILES): C[N+](C)(C)CC(=O)O [Betaine]

Structure (SMILES): O=C(O)/C=C/c1ccccc1 [Cinnamic Acid]
- IC50 (NDM-1 [1]): 225 µM

Structure (SMILES): C[C@H](CS)C(=O)N1CCC[C@@H]1C(=O)O [D-captopril]
- effect on bacteria carrying carbapenemases [3]: no effect

Structure (SMILES): C[C@H](CS)C(=O)N1CCC[C@H]1C(=O)O [L-captopril]
- effect on bacteria carrying carbapenemases [3]: no effect

- IC50 (NDM-1 [1]; [17]): 218 µM
Structure (SMILES): CCCCC/C=C\C/C=C\CCCCCCCC(=O)O [Linolate]

Structure (SMILES): O=C1C[C@@H](c2ccc(O[C@@H]3O[C@H](CO)[C@@H](O)[C@H](O)[C@H]3O)cc2)Oc2cc(O)ccc21 [Liquiritin]
- IC50 (NDM-1 [1]): 130 µM

- MIC ([5]; meropenem alone, read-out: MIC of meropenem): 16 µg/mL
Structure (SMILES): C[C@@H](O)[C@H]1C(=O)N2C(C(=O)O)=C(S[C@@H]3CN[C@H](C(=O)N(C)C)C3)[C@H](C)[C@H]12 [Meropenem, meropenem, reference compound]
- inhibitory effect on E. coli (time-kill) (E. coli ZC-YN3 [4]): weakened

Structure (SMILES): O=C(O)c1c(F)ccc2c1OB(O)[C@@H]1C[C@H]21 [QPX7728]
- oral bioavailability [6]: good oral bioavailability

- IC50 (NDM-1 [1]; [17]): 152 µM
Structure (SMILES): O=c1c(-c2ccc(O[C@@H]3O[C@H](CO)[C@@H](O)[C@H](O)[C@H]3O)cc2)coc2cc(O)cc(O)c12 [Sophoricoside]

Structure (SMILES): CC(C)c1cc2c(c(O)c1O)[C@@]1(C(=O)O)CCCC(C)(C)[C@@H]1CC2 [carnosic acid]
- effect on growth (E. coli ZC-YN3 [7]): nor inhibitory effect on the growth of E. coli ZC-YN3
- IC50 (NDM-1 [1]): 27.1 µM
- decrease of protein activity (NDM-1 [1]; 8 μg/ml carnosic acid): 48.56%
- activity of the protein (remaining) (NDM-1 [1]; 32 μg/ml carnosic acid): 19.85%
- hydrolysis reaction rate (slope of absorbance at 492 nm vs time) (L65A-NDM-1 [8]): 0.02164
- hydrolysis reaction rate (slope of absorbance at 492 nm vs time) (WT-NDM-1 [9]): 0.00742
- hydrolysis reaction rate (slope of absorbance at 492 nm vs time) (T94A-NDM-1 [10]): 0.02277
- hydrolysis reaction rate (slope of absorbance at 492 nm vs time) (F46A-NDM-1 [11]): 0.0225
- effect on the activity of mutants [12]: no obvious effect on the activity of mutants
- Binding constants K (L65A-NDM-1 [13]): 0.336 mL/µg
- Binding constants K (WT-NDM-1 [14]): 0.4564 mL/µg
- Binding constants K (T94A-NDM-1 [15]): 0.3291 mL/µg
- Binding constants K (F46A-NDM-1 [16]): 0.1272 mL/µg
- MIC [5]: > 32 µg/mL
- oral lethal dose (mice): greater than 7000 mg/kg
